Experiment in all cases: CellTiter-Glo cell viability, IC50 determination
Common to all, as to format: cell-based
For orientation: Cellular ATP, detected with luciferase, serves as a proxy for viable cell number.

The test system of test [1] is A549. The following applies: Homo sapiens, 72 h; A549 cell line; 3-day CTG assay; read-out: Absolute IC50. The procedure:
(§1) All the cells will be cultured in the media supplemented with 10% FBS except for which are marked specially, in the temperature of 37° C., 5% CO2 and 95% humidity.
(§2) Cell viability is assayed by using CellTiter-Glo® Luminescent Cell Viability Assay Kit (Cat. No.: G7572, Promega. Store at −20° C.). To prepare the CellTiter_Glo Reagent, the CellTiter-Glo Buffer was thawed and equilibrated to room temperature prior to use. For convenience the CellTiter-Glo Buffer may be thawed and stored at room temperature for up to 48 hours prior to use. The lyophilized CellTiter-Glo Substrate is equilibrated to room temperature prior to use. The appropriate volume (100 ml) of CellTiter-Glo Buffer is transferred into the amber bottle containing CellTiter-Glo Substrate to reconstitute the lyophilized enzyme/substrate mixture, which forms the CellTiter-Glo Reagent. In certain cases, the entire liquid volume of the CellTiter-Glo Buffer bottle may be added to the CellTiter-Glo Substrate vial. Mix by gently vortexing, swirling or by inverting the contents to obtain a homogeneous solution. The CellTiter-Glo Substrate should go into solution easily in less than one minute.
(§3) The day before the experiment (Day −1), cells were dissociated during the logarithmic growth period with Cell Disassociation Buffer (Gibco 13151-014) and mixed with appropriate cell media and centrifuge at 1000 rpm for 3 minutes. The cells were re-suspended and counted using Countstar before adjusting cell concentrations to optimized density (i.e. 4.44×10^4 cells/ml) with respective culture medium listed in Table 1 for 3-day CTG assay (The cell density was optimized before actual study; cell density used in the test may vary for different cell lines). 90 μl cell suspensions were added to two 96-well plates (plates A and B) with the final cell density of 4×10^3 cells/well for 3-day CTG assay (the cell density was optimized before actual study; cell density used in the test may vary for different cell lines). The plate A and B group were incubated for overnight in humidified incubator at 37° C. with 5% CO2.
(§4) On Day 0, for plate A group, 10 μl culture medium was added to each well for T0 reading. CellTiter-Glo® Reagent was added at equal volume of cell culture medium present in each well (e.g., add 100 μl of reagent to 100 μl of medium containing cells for a 96-well plate). Contents were mixed for 2 minutes on an orbital shaker to facilitate cell lysis. The plate was allowed to incubate at room temperature for 10 minutes to stabilize luminescent signal. Backseal black sticker was added to the bottom of each plate. Luminescence was recorded using EnVision Multi Label Reader. This formed the basis for T0 value.
(§5) On Day 0, the test articles and positive controls were dissolved at the concentration indicated at Test Article Dilution map. 100× solution in PBS was prepared and then diluted with appropriate culture media (1:10) into 10×working solutions. 10 μl (10×) drug solutions were dispensed in each well (triplicate for each drug concentration) of the plate B group according to plate inoculation map. The test plates were incubated for […] in the humidified incubator at 37° with 5% CO2.
(§6) On Day 3, CellTiter-Glo® Reagent was added at equal volume of cell culture medium present in each well (e.g., add 100 μl of reagent to 100 μl of medium containing cells for a 96-well plate). Contents were mixed for 2 minutes on an orbital shaker to induce cell lysis. The plate was allowed to incubate at room temperature for 10 minutes to stabilize luminescent signal. Backseal black sticker was placed to the bottom of each plate. Luminescence was recorded using EnVision Multi Label Reader.
(§7) In order to calculate IC50s, a dose-response curve was fitted using a nonlinear regression model with a sigmoidal dose response. The formula for calculating surviving rate was shown below; Absolute IC50 is calculated where Y axis set at 50% using GraphPad Prism 5.0. Software. […]

The subject of test [2] is DLD-1. The following applies: Homo sapiens, 72 h; DLD-1 cell line; 3-day CTG assay; read-out: Absolute IC50. The procedure:
as §1, §2, §3, §4, §5, §6, §7

Test [3] concerns HCC4006. The settings on record: Homo sapiens, 72 h; HCC4006 cell line; 3-day CTG assay; read-out: Absolute IC50. The protocol: as §1, §2, §3, §4, §5, §6, §7
For test [4], the system named is HCT-8. The following applies: Homo sapiens, 72 h; HCT-8 cell line; 3-day CTG assay; read-out: Absolute IC50. The procedure:
as §1, §2, §3, §4, §5, §6, §7

Test [5] has as its system HCT116. The following applies: Homo sapiens, HCT-116, 72 h; HCT116 cell line; 3-day CTG assay; read-out: Absolute IC50. The protocol:
as §1, §2, §3, §4, §5, §6, §7

The test system of test [6] is Hep3B. The following applies: Homo sapiens, 72 h; Hep3B cell line; 3-day CTG assay; read-out: Absolute IC50. The protocol: as §1, §2, §3, §4, §5, §6, §7
For test [7], the system named is LS513. The following applies: Homo sapiens, LS-513, 72 h; LS513 cell line; 3-day CTG assay; read-out: Absolute IC50. The procedure:
as §1, §2, §3, §4, §5, §6, §7

Test [8] concerns MDA-MB-231. The settings on record: Homo sapiens, 72 h; MDA-MB-231 cell line; 3-day CTG assay; read-out: Absolute IC50. The protocol: as §1, §2, §3, §4, §5, §6, §7
Test [9] deals with NCI-H1666. The following applies: Homo sapiens, 72 h; NCI-H1666 cell line; 3-day CTG assay; read-out: Absolute IC50. The protocol:
as §1, §2, §3, §4, §5, §6, §7

The test system of test [10] is NCI-H1792. The settings on record: Homo sapiens, 72 h; NCI-H1792 cell line; 3-day CTG assay; read-out: Absolute IC50. The procedure: as §1, §2, §3, §4, §5, §6, §7
For test [11], the system named is NCI-H23. The following applies: Homo sapiens, 72 h; NCI-H23 cell line; 3-day CTG assay; read-out: Absolute IC50. The protocol:
as §1, §2, §3, §4, §5, §6, §7

The test system of test [12] is NCI-H358. The following applies: Homo sapiens, 72 h; NCI-H358 cell line; 3-day CTG assay; read-out: Absolute IC50. The protocol: as §1, §2, §3, §4, §5, §6, §7
Test [13] deals with PANC-1. The settings on record: Homo sapiens, 72 h; PANC-1 cell line; 3-day CTG assay; read-out: Absolute IC50. The procedure:
as §1, §2, §3, §4, §5, §6, §7

For test [14], the system named is PL45. The settings on record: 72 h; PL45 cell line; 3-day CTG assay; read-out: Absolute IC50. The protocol: as §1, §2, §3, §4, §5, §6, §7
Test [15] relates to SW620. The following applies: Homo sapiens, SW-620, 72 h; SW620 cell line; 3-day CTG assay; read-out: Absolute IC50. The procedure: as §1, §2, §3, §4, §5, §6, §7
Test [16] deals with Sk-Hep-1. The settings on record: Homo sapiens, SK-HEP1, 72 h; Sk-Hep-1 cell line; 3-day CTG assay; read-out: Absolute IC50. The procedure:
as §1, §2, §3, §4, §5, §6, §7

pIC50: −log10 of the molar value.

On to `O=C(Nc1ccc2[nH]nc(-c3ccncc3)c2c1)[C@@H]1CCN(CC(=O)N2CCN(c3ccc(-c4ncccn4)cc3)CC2)C1` [SCH772984, (R)-1-(2-oxo-2-(4-(4-(pyrimidin-2-yl)phenyl)piperazin-1-yl)ethyl)-N-(3-(pyridin-4-yl)-1H-indazol-5-yl)pyrrolidine-3-carboxamide], for which the pIC50 (in general, the IC50 on a negative log10 scale, so that one unit is a factor of ten) in test [1] is 5.75; in test [2] it was 4.28; in test [3], 5.56; in test [4], 5.90; in test [5] it was 6.35; in [6], 6.60. Moreover, the pIC50 is 6.11 in test [7]; 4.49 in test [8]; 6.04 in test [9]; 5.33 in test [10]; 5.43 in test [11]; 6.28 in test [12]. Further, the pIC50 in [13] was 4.19; in test [14], 6.18; in [15], 6.59; in test [16], 5.28.

For the compound `CC(=O)Nc1cccc(-n2c(=O)n(C3CC3)c(=O)c3c(Nc4ccc(I)cc4F)n(C)c(=O)c(C)c32)c1` [Trametinib, N-(3-{3-Cyclopropyl-5-[(2-fluoro-4-iodophenyl)amino]-6,8-dimethyl-2,4,7-trioxo-3,4,6,7-tetrahydropyrido[4,3-d]pyrimidin-1(2H)-yl}phenyl)acetamide], the pIC50 in test [1] is 6.62; in test [2], 5.19; in test [3] it was 6.39; in [4], 7.30; in [5] it was 7.40; in [6], 7.30. The pIC50 in [7] is 8.00; in test [8] it was 4.62; in [9], 6.89; in test [10] it was 6.80; in [11] it was 6.52; in test [12] it was 7.30. Also, the pIC50 in test [13] is 3.48; in test [14] it was 6.92; in test [15] it was 8.00; in test [16] it was 4.54.

The record behind these values is patent US10501805B2, “Methods for determining responsiveness to MEK/ERK inhibitors” (CROWN BIOSCIENCE, INC. (TAICANG), priority 2014, dated 2019).
